From US7521478B2, “Total synthesis of myriaporones” (Pharma Mar, S.A.U., priority 2002, dated 2009)

What was measured:
Assay type in all cases: cell-based
SK-MEL-28 = assay: Inhibition of cell growth by colorimetric SRB assay, MEL-28; settings: Homo sapiens, SK-MEL-28, MEL-28, 48 hours exposure; for CC50: cell killing, read-out: LC50 (the source's name); for IC (total growth inhibition): read-out: TGI
Method in brief: (§1)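 Absorbance of solubilized bound SRB (490 nm) quantified cell growth and viability after cells were exposed to compound for 48 h. Seeding was 5×10^3 cells per well in RPMI 1640/10% FBS, with 18 h attachment beforehand. GI, TGI and LC were calculated from means of triplicate wells.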

LNCaP = assay: Inhibition of cell growth by colorimetric SRB assay, LN-caP; settings: Homo sapiens, LN-caP, 48 hours exposure; for CC50: cell killing, read-out: LC50 (the source's name); for IC (total growth inhibition): read-out: TGI
Method in brief: as §1

IGROV = assay: Inhibition of cell growth by colorimetric SRB assay, IGROV; settings: Homo sapiens, 48 hours exposure; for CC50: cell killing, read-out: LC50 (the source's name); for IC (total growth inhibition): read-out: TGI
Method in brief: as §1

HT-29 = assay: Inhibition of cell growth by colorimetric SRB assay, HT-29; settings: Homo sapiens, HT-29, 48 hours exposure; for CC50: cell killing, read-out: LC50 (the source's name); for IC (total growth inhibition): read-out: TGI
Method in brief: as §1

LoVo = assay: Inhibition of cell growth by colorimetric SRB assay, LOVO; settings: Homo sapiens, LOVO, 48 hours exposure; for LC50: cell killing, read-out: LC50; for IC (total growth inhibition): read-out: TGI
Method in brief: as §1

A-549 = assay: Inhibition of cell growth by colorimetric SRB assay, A-549; settings: Homo sapiens, A549, A-549, 48 hours exposure; for CC50: cell killing, read-out: LC50 (the source's name); for IC (total growth inhibition): read-out: TGI
Method in brief: as §1

LoVo-Dox = assay: Inhibition of cell growth by colorimetric SRB assay, LOVO-DOX; settings: Homo sapiens, LOVO-DOX, 48 hours exposure; for LC50 (concentration for 50% cell killing): read-out: LC50; for IC (total growth inhibition): read-out: TGI
Method in brief: as §1

SK-BR-3 = assay: Inhibition of cell growth by colorimetric SRB assay, SK-BR-3; settings: SK-BR-3, 48 hours exposure; for GI50 / CC50: Homo sapiens; for CC50: cell killing, read-out: LC50 (the source's name); for TGI: total growth inhibition
Method in brief: as §1

HeLa-APL = assay: Inhibition of cell growth by colorimetric SRB assay, HELA-APL; settings: Homo sapiens, HELA-APL, 48 hours exposure; for CC50: cell killing, read-out: LC50 (the source's name)
Method in brief: as §1

DU-145 = assay: Inhibition of cell growth by colorimetric SRB assay, DU-145; settings: Homo sapiens, DU-145, 48 hours exposure; for CC50: cell killing, read-out: LC50 (the source's name); for IC (total growth inhibition): read-out: TGI
Method in brief: as §1

HeLa = assay: Inhibition of cell growth by colorimetric SRB assay, HELA; settings: Homo sapiens, HELA, 48 hours exposure; for CC50: cell killing, read-out: LC50 (the source's name); for IC (total growth inhibition): read-out: TGI
Method in brief: as §1

PANC-1 = assay: Inhibition of cell growth by colorimetric SRB assay, PANC-1; settings: Homo sapiens, PANC-1, 48 hours exposure; for CC50: cell killing, read-out: LC50 (the source's name); for IC (total growth inhibition): read-out: TGI
Method in brief: as §1

K-562 = assay: Inhibition of cell growth by colorimetric SRB assay, K-562; settings: Homo sapiens, K562, K-562, 48 hours exposure; for CC50: cell killing, read-out: LC50 (the source's name); for IC (total growth inhibition): read-out: TGI
Method in brief: as §1

IGROV-ET = assay: Inhibition of cell growth by colorimetric SRB assay, IGROV-ET; settings: Homo sapiens, IGROV-ET, 48 hours exposure; for CC50: cell killing, read-out: LC50 (the source's name); for IC (total growth inhibition): read-out: TGI
Method in brief: as §1

## C/C=C\[C@H](C)[C@H]1OC1(C)[C@@H](O[Si](C)(C)C(C)(C)C)[C@@H](CO)C(=O)[C@H](CO)[C@H](O)CC(=O)CC (stereo partly shown) [20b + 20d]
SK-MEL-28
  GI50: 20.5 µM
  CC50: 20.5 µM
  IC (total growth inhibition): 20.5 µM
LNCaP
  GI50: 12.4 µM
  CC50: 20.5 µM
  IC (total growth inhibition): 20.5 µM
IGROV
  GI50: 20.5 µM
  CC50: 20.5 µM
  IC (total growth inhibition): 20.5 µM
HT-29
  GI50: 20.5 µM
  CC50: 20.5 µM
  IC (total growth inhibition): 20.5 µM
LoVo
  GI50: 20.5 µM
  LC50: 20.5 µM
  IC (total growth inhibition): 20.5 µM
A-549
  GI50: 20.5 µM
  CC50: 20.5 µM
  IC (total growth inhibition): 20.5 µM
LoVo-Dox
  GI50: 20.5 µM
  LC50 (concentration for 50% cell killing): 20.5 µM
  IC (total growth inhibition): 20.5 µM
SK-BR-3
  GI50: 14.9 µM
  CC50: 20.5 µM
  TGI: 2.05E−05 Molar
HeLa-APL
  CC50: 20.5 µM
DU-145
  GI50: 20.5 µM
  CC50: 20.5 µM
  IC (total growth inhibition): 20.5 µM
HeLa
  GI50: 20.5 µM
  CC50: 20.5 µM
  IC (total growth inhibition): 20.5 µM
PANC-1
  GI50: 9.37 µM
  CC50: 20.5 µM
  IC (total growth inhibition): 20.5 µM
K-562
  GI50: 10.3 µM
  CC50: 20.5 µM
  IC (total growth inhibition): 20.5 µM
IGROV-ET
  GI50: 20.5 µM
  CC50: 20.5 µM
  IC (total growth inhibition): 20.5 µM

## C/C=C\[C@H](C)[C@H]1O[C@@]1(C)[C@@H](O)[C@@H](COC(C)=O)C(=O)[C@H](CO)[C@@H](O)CC(=O)CC [Compound 47]
SK-MEL-28
  GI50: 0.082 µM
  CC50: 12.9 µM
  IC (total growth inhibition): 0.984 µM
LNCaP
  GI50: 0.0813 µM
  CC50: 8.88 µM
  IC (total growth inhibition): 0.536 µM
IGROV
  GI50: 0.0639 µM
  CC50: 24.1 µM
  IC (total growth inhibition): 0.528 µM
HT-29
  GI50: 0.106 µM
  CC50: 24.1 µM
  IC (total growth inhibition): 3.11 µM
LoVo
  GI50: 0.0403 µM
  LC50: 17.7 µM
  IC (total growth inhibition): 0.374 µM
A-549
  GI50: 0.151 µM
  CC50: 23.2 µM
  IC (total growth inhibition): 1.12 µM
LoVo-Dox
  GI50: 0.216 µM
  LC50 (concentration for 50% cell killing): 24.1 µM
  IC (total growth inhibition): 24.1 µM
SK-BR-3
  GI50: 0.0231 µM
  CC50: 2.3 µM
  TGI: 1.18E−07 Molar
HeLa-APL
  CC50: 24.1 µM
HeLa-APL; read-out: GI50
  GI50: 0.0796 µM
HeLa-APL; total growth inhibition, read-out: TGI
  IC (total growth inhibition): 0.591 µM
DU-145
  GI50: 0.0815 µM
  CC50: 24.1 µM
  IC (total growth inhibition): 0.531 µM
HeLa
  GI50: 0.0717 µM
  CC50: 13.5 µM
  IC (total growth inhibition): 0.434 µM
PANC-1
  GI50: 0.0905 µM
  CC50: 19.5 µM
  IC (total growth inhibition): 2.38 µM
K-562
  GI50: 0.294 µM
  CC50: 11.8 µM
  IC (total growth inhibition): 0.999 µM
IGROV-ET
  GI50: 0.152 µM
  CC50: 24.1 µM
  IC (total growth inhibition): 1.08 µM
